Experiment [1] in a line: In vitro inhibitory activity against Steroid 5-alpha-reductase by using enzymic kinetics method.
The nature of experiment [2]: In vitro inhibitory activity against Steroid 5-alpha-reductase by using isotope method.

Each structure is given as a SMILES string. Where only a bound is given, the exact number is not on record here.

As for `CC(C)(C)NC(=O)[C@H]1CCC2C3CCC4=C(C(F)(F)F)C(=O)CC[C@]4(C)C3CC[C@@]21C` (stereo partly drawn), the Ki stood at 20.2 nM in experiment [1] and 20.9 nM in experiment [2].
`CC(=O)[C@H]1CCC2C3CCC4=C(C(F)(F)F)C(=O)CC[C@]4(C)C3CC[C@@]21C` (stereo partly drawn): the Ki in experiment [1] and in experiment [2] was more than 1000 nM throughout.
Regarding `C[C@]12CCC(=O)C(C(F)(F)F)=C1CCC1C2CC[C@]2(C)C(=O)CCC12` (stereo partly drawn), the Ki in experiment [1] stood at 28.8 nM; in experiment [2] it was 95.2 nM.
With `CC(C)(C)NC(=O)[C@H]1CC[C@H]2[C@@H]3CC[C@H]4NC(=O)C=C[C@]4(C)[C@H]3CC[C@]12C` [FINASTERIDE], the Ki in experiment [1] was 54.7 nM; in experiment [2], 88.2 nM.

Source of the values: ChEMBL document CHEMBL1129816, “Synthesis of 4-trifluoromethylsteroids: A novel class of steroid 5-reductase inhibitors” (Bioorg Med Chem Lett, 1997).
